Experimental data as given in patent US20240350494A1, “THERAPEUTIC MODULATION OF INTEGRINS” (Pliant Therapeutics, Inc., priority 2021, published 2024).
“Also recorded” adds a separate entry of the source.

Legend:
[1] = SAD/MAD first-in-human pharmacokinetics; format: in vivo; details: healthy subjects
Experimental: Healthy human subjects (N=85) were selected for single ascending dose (SAD) and multiple ascending dose (MAD) first-in-human studies. A solution for oral administration was prepared, containing 10 mg/mL of compound 5 in a 50:50 mixture of ORA-SWEET® SF (PERRIGO®, Allegan, Michigan) and sterile water for irrigation. Sufficient solution was administered orally to the subjects to provide between 15 mg/dose and 75 mg/dose of compound 5 in the SAD study and between 10 mg/dose and 40 mg/dose of compound 5 in the MAD study. Concentrations of compound 5 were measured in the subjects by obtaining a sample of plasma from each subject at desired intervals, and subjecting the plasma to liquid chromatography-mass spectrometry-mass spectrometry (LC-MS/MS), with quantification using a calibration curve determined from a range of solutions at standardized concentrations. The lower limit of quantitation (LLOQ) of the assay was 1 ng/mL and the calibration curve range was 1 to 500 ng/mL.

[2] = test system: forced vital capacity (FVC); assay: Phase 2a trial in IPF, forced vital capacity; format: in vivo, human
Text: (§1) The exploratory endpoints of the trial measured changes in forced vital capacity (FVC), HRCT-based Quantitative Lung Fibrosis score (QLF), and selected biomarkers over 3 months of treatment.
FIG. 19 illustrates the change in FVC (forced vital capacity) from baseline to Week 12, MMRM Analysis—ITT Population. Change from baseline analyzed using a mixed model for repeated measures with terms for treatment group, SOC (Y/N), visit, baseline value, and treatment-by-visit interaction. An unstructured covariance (UN) structure was used.

αVβ6 = biological target: T1, αVβ6 (Homo sapiens, UniProt P06756+P18564); assay: αVβ6 target engagement in IPF lungs, [18F]FP-R01-MG-F2 PET/CT; format: in vivo; set-up: key to Vt: VT = volume of labeled tissue, from two-compartment kinetic model; key to Vs (corrected for non-displaceable binding, VND = 0.66): VT corrected for non-displaceable tracer binding (VND)
T1 construct: evaluating αVβ6 receptor occupancy in the lungs; from tissue; host or cells: lungs of living participants with IPF (in vivo PET/CT)
T1 sequence (P06756 31-889 limits assumed): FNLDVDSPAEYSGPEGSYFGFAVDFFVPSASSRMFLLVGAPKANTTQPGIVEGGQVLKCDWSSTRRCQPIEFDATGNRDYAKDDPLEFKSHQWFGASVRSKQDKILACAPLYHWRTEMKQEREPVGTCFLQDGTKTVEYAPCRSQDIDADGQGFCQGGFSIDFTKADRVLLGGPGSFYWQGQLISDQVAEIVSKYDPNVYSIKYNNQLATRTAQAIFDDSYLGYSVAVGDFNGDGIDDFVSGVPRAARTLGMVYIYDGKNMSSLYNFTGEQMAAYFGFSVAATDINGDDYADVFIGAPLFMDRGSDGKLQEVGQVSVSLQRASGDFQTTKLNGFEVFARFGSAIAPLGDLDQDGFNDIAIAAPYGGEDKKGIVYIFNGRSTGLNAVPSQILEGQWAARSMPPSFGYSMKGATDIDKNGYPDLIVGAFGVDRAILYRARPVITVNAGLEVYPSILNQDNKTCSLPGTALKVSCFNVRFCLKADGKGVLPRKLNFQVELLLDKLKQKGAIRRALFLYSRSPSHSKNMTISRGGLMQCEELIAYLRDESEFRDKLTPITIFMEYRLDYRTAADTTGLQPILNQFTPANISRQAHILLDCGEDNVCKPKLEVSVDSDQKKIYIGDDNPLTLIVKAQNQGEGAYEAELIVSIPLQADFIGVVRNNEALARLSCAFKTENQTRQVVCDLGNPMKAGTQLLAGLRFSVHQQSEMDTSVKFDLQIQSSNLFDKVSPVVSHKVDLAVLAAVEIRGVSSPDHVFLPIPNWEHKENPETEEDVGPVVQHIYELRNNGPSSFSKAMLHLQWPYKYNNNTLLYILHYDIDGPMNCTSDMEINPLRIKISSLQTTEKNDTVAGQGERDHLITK
T1 sequence (P06756 891-1048 partner limits assumed): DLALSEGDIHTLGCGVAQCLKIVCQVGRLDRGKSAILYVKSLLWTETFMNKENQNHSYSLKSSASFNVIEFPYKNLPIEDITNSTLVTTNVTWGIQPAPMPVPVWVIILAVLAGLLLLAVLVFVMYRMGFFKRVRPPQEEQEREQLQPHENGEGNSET
T1 sequence (P18564 22-788): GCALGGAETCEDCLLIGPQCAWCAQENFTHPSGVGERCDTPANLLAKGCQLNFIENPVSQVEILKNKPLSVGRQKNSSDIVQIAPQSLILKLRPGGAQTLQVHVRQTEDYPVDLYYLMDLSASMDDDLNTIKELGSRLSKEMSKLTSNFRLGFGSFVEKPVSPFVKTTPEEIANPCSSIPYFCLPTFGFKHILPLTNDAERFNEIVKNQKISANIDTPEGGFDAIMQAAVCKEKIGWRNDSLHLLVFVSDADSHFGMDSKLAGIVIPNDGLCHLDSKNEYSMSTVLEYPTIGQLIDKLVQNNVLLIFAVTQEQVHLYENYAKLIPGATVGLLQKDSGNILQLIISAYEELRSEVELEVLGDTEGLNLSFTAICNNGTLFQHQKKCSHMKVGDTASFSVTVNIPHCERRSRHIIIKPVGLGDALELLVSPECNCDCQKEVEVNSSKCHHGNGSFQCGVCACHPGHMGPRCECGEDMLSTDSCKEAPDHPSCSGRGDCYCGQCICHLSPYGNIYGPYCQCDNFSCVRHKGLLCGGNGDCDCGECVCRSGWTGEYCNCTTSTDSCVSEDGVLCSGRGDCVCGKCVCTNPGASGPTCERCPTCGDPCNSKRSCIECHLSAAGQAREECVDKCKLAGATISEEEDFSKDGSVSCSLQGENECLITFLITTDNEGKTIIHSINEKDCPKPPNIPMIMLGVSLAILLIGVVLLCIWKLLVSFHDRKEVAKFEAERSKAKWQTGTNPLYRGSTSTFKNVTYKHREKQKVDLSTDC
Experimental: The aim of this Example is to assess target engagement of the disclosed compounds to αVβ6 in participants with IPF using [^18F]FP-R01-MG-F2 PET/computerized tomography (CT) imaging.
(§2) This Example was conducted as an open-label, single-dose (60 mg, 120 mg, 240 mg or 320 mg) clinical trial evaluating αVβ6 receptor occupancy in the lungs, safety, and pharmacokinetics of Compound 5 in subjects with IPF. Knottin tracer uptake kinetics were compared pre- and post-dose of the disclosed compound, as measured by standardized uptake values (SUVs) and parameters estimated from kinetic modeling in regions-of-interest on dynamic [^18F]FP-R01-MG-F2 PET/CT scans. […] Receptor occupancy was estimated from the output of the two-compartment model (VT, the volume of labeled tissue) using standard equations and fitting algorithms, and corrections for VND (non-displaceable tracer binding). For example, in FIG. 8, the data points, shown as circles, are modeled by the following formula: […]
(§3) Five subjects with IPF were enrolled: Subject A received a single dose of 60 mg of the disclosed compound followed by a post-dose scan. Subject B received two doses of the disclosed compound separated by two weeks, 120 mg and 240 mg, each followed by a post-dose scan. Subject C received two doses of the disclosed compound separated by two weeks, 240 mg and 320 mg, each followed by a post-dose scan. Subject D received a single dose of 320 mg of the disclosed compound followed by a post-dose scan.

[3] = test system: Human bronchial epithelial cells; assay: LAP adhesion assay, normal human bronchial epithelial cells (express αVβ6); format: cell-based; details: cell index (electrical impedance), xCELLigence; FIG. 1A
Experimental: Two latency associated peptide (LAP) adhesion binding assays were devised using primary human lung cells, including normal (healthy) human bronchial epithelial cells and human lung fibroblasts (healthy and IPF).
Human bronchial epithelial cells are known to express αVβ6 integrin in culture. Human bronchial epithelial cells were prepared for the assay by dissociation with trypsin/EDTA and were then seeded at 20,000 cells per well on 96 well plates (ACEA Bioscience E-plate View, Acea Biosciences; San Diego, CA) previously coated with 5 μg/ml of recombinant human LAP (R&D Systems; Minneapolis, MN) and blocked with 4% bovine serum albumin. Cell index (electrical impedance) was measured to assess cell attachment/spreading every 3 minutes for 24 hours at 37° C./5% CO2 using the xCELLigence RTCA MP Instrument (Acea Biosciences; San Diego, CA).

[4] = Unbound plasma concentration in the PET study; format: in vivo, human; details: IPF
Experimental: as §2, §3

[5] = Phase 2a trial in IPF, safety and tolerability; format: in vivo, human
[6] = test system: Quantitative Lung Fibrosis (QLF); assay: Phase 2a trial in IPF, HRCT-based Quantitative Lung Fibrosis; format: in vivo, human; details: baseline to week 12, CT Protocol Population
Text: as §1
FIG. 29 illustrates the Mean Percent Change in Quantitative Lung Fibrosis (the extent from baseline to week 12 in the CT Protocol Population), using High-Resolution Computed Tomography (HRCT) based Quantitative Lung Fibrosis (QLF) imaging.

[7] = of the 67 patients treated with Compound 5

COCCN(CCCCc1ccc2c(n1)NCCC2)CC[C@H](Nc1ncnc2ccccc12)C(=O)O [Compound 5, (S)-4-((2-methoxyethyl)(4-(5,6,7,8-tetrahydro-1,8-naphthyridin-2-yl)butyl)amino)-2-(quinazolin-4-ylamino)butanoic acid]
oral bioavailability and pharmacokinetics [1]: good oral bioavailability and pharmacokinetics | increase in FVC relative to baseline ([2]; 80 mg QD, 12 weeks): +24.6 mL | treatment effect on FVC versus placebo at 12 weeks ([2]; 40, 80, 160 mg QD): dose-dependent treatment effect | proportion of patients experiencing a FVCpp decline of ≥10%, dose dependence ([2]; 40, 80, 160 mg QD, 12 weeks): Dose-dependent reduction; also recorded: dose-dependent decrease; also recorded: Dose dependent reduction | treatment effect with and without standard of care therapy ([2]; all Compound 5 dose groups, SoC nintedanib or pirfenidone): A treatment effect was observed; also recorded: evident with and without use of standard-of-care agents | decrease of the volume of distribution of the knottin radiotracer in the lungs (αVβ6; 60 mg dose): approximately 50% | decrease of the volume of distribution of the knottin radiotracer in the lungs (αVβ6; 240 and 320 mg doses): greater than 95% | Receptor occupancy (αVβ6; IPF lungs, at pharmacologically relevant plasma concentrations): > 95% | Vs (corrected for non-displaceable binding, VND = 0.66) (αVβ6; Subject A, 60 mg, post-dose scan (baseline Vs 2.47)): 1.18 | Vt (αVβ6; Subject A, 60 mg, post-dose scan (baseline Vt 3.13)): 1.84 | % DeltaVt (αVβ6; Subject B, 120 mg): 59.76% | Vs (corrected for non-displaceable binding, VND = 0.66) (αVβ6; Subject B, 120 mg, post-dose scan (baseline Vs 2.48)): 0.99 | Vt (αVβ6; Subject B, 120 mg, post-dose scan (baseline Vt 3.12)): 1.65 | Vs (corrected for non-displaceable binding, VND = 0.66) (αVβ6; Subject B, 240 mg, post-dose scan (baseline Vs 2.46)): 0.06 | Vt (αVβ6; Subject B, 240 mg, post-dose scan (baseline Vt 3.12)): 0.72 | Vs (corrected for non-displaceable binding, VND = 0.66) (αVβ6; Subject C, 240 mg, post-dose scan (baseline Vs 1.1)): 0,32 | Vt (αVβ6; Subject C, 240 mg, post-dose scan (baseline Vt 1.76)): 0.98 | Vs (corrected for non-displaceable binding, VND = 0.66) (αVβ6; Subject C, 320 mg, post-dose scan (baseline Vs 1.1)): 0.19 | Vt (αVβ6; Subject C, 320 mg, post-dose scan (baseline Vt 1.76)): 0.85 | Vs (corrected for non-displaceable binding, VND = 0.66) (αVβ6; Subject D, 320 mg, post-dose scan (baseline Vs 1.4)): 0.09 | Vt (αVβ6; Subject D, 320 mg, post-dose scan (baseline Vt 2.06)): 0.75 | concentration at which the exposure response saturates (αVβ6; measured drug exposure at 4 hours, approaching 100% receptor occupancy): about 100 nM | inhibition of normal bronchial epithelial cell adhesion to LAP [3]: substantially inhibited | Conc (Unbound Plasma Concentration) ([4]; Subject A, single 60 mg dose): 3.66 nM | Conc (Unbound Plasma Concentration) ([4]; Subject B, 120 mg dose): 10 nM | Conc (Unbound Plasma Concentration) ([4]; Subject B, 240 mg dose two weeks after 120 mg): 58.3 nM | Conc (Unbound Plasma Concentration) ([4]; Subject C, 240 mg dose): 103 nM | Conc (Unbound Plasma Concentration) ([4]; Subject D, single 320 mg dose): 33.6 nM | discontinuations due to adverse events ([5]; 12 weeks, 40-160 mg QD): no discontinuations due to adverse events; also recorded: No premature discontinuations due to AEs; also recorded: no participants discontinued Compound 5 due to TEAE | most frequent TEAE ([5]; 12 weeks, 40-160 mg QD): diarrhea but only seen in patients on standard of care | severity of most treatment emergent adverse events (TEAE) ([5]; 12 weeks, 40-160 mg QD): mild or moderate in severity | treatment related deaths or drug related serious adverse events (SAE) ([5]; 12 weeks, 40-160 mg QD): No treatment related deaths or drug related serious adverse events (SAE) were reported; also recorded: No deaths or drug-related SAEs; also recorded: no treatment-emergent serious adverse events (SAEs) were observed; also recorded: no treatment related SAEs or deaths | tolerability ([5]; IPF patients, 40, 80, 160 mg once daily, 12 weeks): safe and well tolerated | patients who completed 12 weeks of treatment, number [5, 7]: 65 | patients who completed 12 weeks of treatment, proportion [5, 7]: 97% | Improvers < −2% QLF extent change, (%) ([6]; 40 mg (N = 15)): 6.6% | Median, QLF extent change ([6]; 40 mg (N = 15)): 1.50% | Stable [−2, 2%) QLF extent change, (%) ([6]; 40 mg (N = 15)): 46.7% | Worse > 2% QLF extent change, (%) ([6]; 40 mg (N = 15)): 46.7% | Improvers < −2% QLF extent change, (%) ([6]; 80 mg (N = 18)): 11.1% | Mean Difference (SD), QLF extent ([6]; 80 mg (N = 18)): 0.70% | Median, QLF extent change ([6]; 80 mg (N = 18)): −0.45% | Stable [−2, 2%) QLF extent change, (%) ([6]; 80 mg (N = 18)): 72.2% | Worse > 2% QLF extent change, (%) ([6]; 80 mg (N = 18)): 16.7% | Improvers < −2% QLF extent change, (%) ([6]; 160 mg (N = 14)): 28.6% | Mean Difference (SD), QLF extent ([6]; 160 mg (N = 14)): 0.00% | Median, QLF extent change ([6]; 160 mg (N = 14)): −0.10% | Stable [−2, 2%) QLF extent change, (%) ([6]; 160 mg (N = 14)): 50.0% | Worse > 2% QLF extent change, (%) ([6]; 160 mg (N = 14)): 21.4%
